In data set [1] the test system is head twitch responses. Details: method as in PMID 33860183. Particulars: equimolar basis; cited from earlier work.
Data set [2] deals with 5-HT2A receptor. Further details: method as in PMID 36407948, PMID 33860183. Particulars: in vitro; cited from earlier work.
Data set [3] can be described thus: Plasma psilocin by LC-MS/MS after intraperitoneal psilocybin or psilacetin fumarate.
The conditions of data set [4]: cited from earlier work.

Each structure is given as a SMILES string.

What is called half-life is the time needed for the level to fall by half in the phase considered. High values mean slow decline, low ones rapid decline.

Consider `CC(=O)Oc1cccc2[nH]cc(CCN(C)C)c12` [psilacetin, 4-acetoxy-N,N-dimethyltryptamine], for which the “head twitch response potency” value in data set [1] was 1.12 µmol/kg. Also, the “receptor potency, fold lower than that of psilocin” value in data set [2] is recorded as 10- to 20 fold.

In data set [3] (both, C57Bl6/J, mouse, plasma, ip), `CN(C)CCc1c[nH]c2cccc(O)c12` [psilocin] gave a k el of 0.000433 s⁻¹. The half-life in data set [3] (both, C57Bl6/J, mouse, plasma, ip, psilocin half-life (T1/2), plasma psilocin from psilocybin or psilacetin, mice) was approximately 30 min. The “plasma psilocin concentration by 4 h after administration” value in data set [3] (lower limit of quantitation 0.1 ng/mL, approximately 6 half-lives) is on record as “near or below the lower limit of quantitation”. Besides, the psilocin half-life result in data set [3] (plasma psilocin, mice) is given as “approximately one-half”. Also, the “terminal elimination rate of psilocin, range” value in data set [3] (range across tested conditions) is listed as 0.020–0.038 min^1. In addition, in data set [1], the “head twitch response potency” value is 0.81 µmol/kg.

For the compound `CN(C)CCc1c[nH]c2cccc(OP(=O)(O)O)c12` [psilocybin], the “plasma concentrations in human pharmacokinetic studies” value in data set [4] is 5 to 50 ng/mL.

The values are drawn from PMC10804612, “In vivo validation of psilacetin as a prodrug yielding modestly lower peripheral psilocin exposure than psilocybin” (Frontiers in Psychiatry, 2024).
